Measured values from US6051389A, “Enzyme sensor” (Radiometer Medical A/S, priority 1996, dated 2000).
Counter-ions that a name gives are not always drawn.

Test system: lactate oxidase
Assay: Enzyme Stability Test: oxalate as stabilising agent for lactate oxidase in S4932 rinse solution (Example 5)
Format: biochemical, Pediococcus
Procedure: Colorimetric lactate oxidase assay
The formation of H2 O2 is determined in a peroxidase (POD) assay system where a quinonimine dye is formed. The amount of formed quinonimine dye is determined spectrophotometically at 490 nm.
100 μL of Reagent A is added to a well of a microtiterplate (Immunoplate, Nunc, Roskilde, Denmark). The colour reaction is started by adding 100 μL of the Enzyme Solution. Immediately afterwards, the microtiterplate is placed in the plate-holder of a THERMOmax incubator (Molecular Devices, Menlo Park, Calif., USA) pre-set to: 37° C., kinetic mode, lag-time 5 min., reading time 15 min., and automix.
The enzymatic activity of lactate oxidase (and also other enzymes) is decreasing exponentially. Therefore, the half-life period (t1/2) for the enzymatic activity will be independent of the initial concentration, and, thus, t1/2 is an excellent expression for the stability of an enzyme under various conditions.
The enzymatic activity is determined (as described in the Enzyme Activity Test above) for the enzyme composition in question at least four times over a relevant period, e.g. every day for at least four days (day 0 to day 3). t1/2 is then calculated following standard mathematical methods.
A solution of 0.04 U/mL lactate oxidase in S4932 rinse solution (Radiometer Medical A/S, Copenhagen, Denmark) was prepared. Disodium oxalate corresponding to a total concentration of 1, 2, 4, 8, and 16 mM of oxalate was added. The enzymatic activity of the solutions was determined five times over a period of 13 days. The enzymatic stability of these solutions was compared with the enzymatic stability of a solution without oxalate.

Enzymatic Activity (oxalate 1 mM, time 0 h, 0.04 U/mL lactate oxidase): 13.76 mOD/min.
Enzymatic Activity (oxalate 1 mM, time 68.5 h): 11.47 mOD/min.
Enzymatic Activity (oxalate 1 mM, time 148 h): 11.01 mOD/min.
Enzymatic Activity (oxalate 1 mM, time 199 h): 9.89 mOD/min.
Enzymatic Activity (oxalate 1 mM, time 319 h): 8.67 mOD/min.
Enzymatic Activity (oxalate 2 mM, time 0 h, 0.04 U/mL lactate oxidase): 13.63 mOD/min.
Enzymatic Activity (oxalate 2 mM, time 68.5 h): 12.08 mOD/min.
Enzymatic Activity (oxalate 2 mM, time 148 h): 11.07 mOD/min.
Enzymatic Activity (oxalate 2 mM, time 199 h): 9.92 mOD/min.
Enzymatic Activity (oxalate 2 mM, time 319 h): 8.63 mOD/min.
Enzymatic Activity (oxalate 4 mM, time 0 h, 0.04 U/mL lactate oxidase): 12.87 mOD/min.
Enzymatic Activity (oxalate 4 mM, time 68.5 h): 11.90 mOD/min.
Enzymatic Activity (oxalate 4 mM, time 148 h): 11.36 mOD/min.
Enzymatic Activity (oxalate 4 mM, time 199 h): 10.36 mOD/min.
Enzymatic Activity (oxalate 4 mM, time 319 h): 9.60 mOD/min.
Enzymatic Activity (oxalate 8 mM, time 0 h, 0.04 U/mL lactate oxidase): 11.86 mOD/min.
Enzymatic Activity (oxalate 8 mM, time 68.5 h): 11.34 mOD/min.
Enzymatic Activity (oxalate 8 mM, time 148 h): 10.86 mOD/min.
Enzymatic Activity (oxalate 8 mM, time 199 h): 9.84 mOD/min.
Enzymatic Activity (oxalate 8 mM, time 319 h): 9.33 mOD/min.
Enzymatic Activity (oxalate 16 mM, time 0 h, 0.04 U/mL lactate oxidase): 10.37 mOD/min.
Enzymatic Activity (oxalate 16 mM, time 68.5 h): 10.15 mOD/min.
Enzymatic Activity (oxalate 16 mM, time 148 h): 9.72 mOD/min.
Enzymatic Activity (oxalate 16 mM, time 199 h): 8.81 mOD/min.
Enzymatic Activity (oxalate 16 mM, time 319 h): 8.65 mOD/min.
SMILES: O=C(O)C(=O)O [Oxalate, disodium oxalate]
